Where a name gives a salt, the structure may show the parent alone.
Legend:
Experiment in all cases: MIC by serial dilution in Iso-sensitest agar
Type in all cases: cell-based
S agalactiae 2798 = conditions: 10⁴ colony-forming units, overnight at 37°C, lowest concentration to inhibit growth
Procedure: (§1) Minimum Inhibitory Concentration (MIC) values of compounds of the invention against a variety of organisms were determined by serial dilution in Iso-sensitest agar (from Oxoid Ltd. Basingstoke, England). The plates were inoculated with 10⁴ colony-forming units and incubated overnight at 37°C. The MIC values recorded in Table I were the lowest concentration of antibiotic to inhibit growth. Comparative data for Piperacillin (6β-[D-2-[(4-ethyl-2, 3-dioxopiperazin-1-yl)carbonylamino]-2-phenylacetamido] -penicillanic acid, sodium salt) and for the compound 6α-formamido-6β-[D-2-[(4-ethyl-2, 3-dioxopiperazin-1-yl)carbonylamino]-2- phenyl acetamido]-penicillanic acid, sodium salt (Compound A) disclosed in U.K. Patent GB-2107307B, are also given.

P.aeruginosa K79961 = conditions: Pseudomonas aeruginosa, 10⁴ colony-forming units, overnight at 37°C, lowest concentration to inhibit growth
Procedure: as §1

K.pneumoniae T767 = conditions: Klebsiella pneumoniae, 10⁴ colony-forming units, overnight at 37°C, lowest concentration to inhibit growth
Procedure: as §1

P.aerginosa 10662 = conditions: 10⁴ colony-forming units, overnight at 37°C, lowest concentration to inhibit growth
Procedure: as §1

E.Coli DC RTEM = conditions: Escherichia coli
Procedure: as §1

E.Coli JT 425 = conditions: Escherichia coli, JT425, 10⁴ colony-forming units, overnight at 37°C, lowest concentration to inhibit growth
Procedure: as §1

Row | Structure (SMILES) | MIC (S agalactiae 2798) [µg/mL] | MIC (P.aeruginosa K79961) [µg/mL] | MIC (K.pneumoniae T767) [µg/mL] | MIC (P.aerginosa 10662) [µg/mL] | MIC (E.Coli DC RTEM) [µg/mL] | MIC (E.Coli JT 425) [µg/mL]
1 | CC1(C)S[C@H]2N(C(=O)[C@@]2(NC=O)NC(=O)[C@H](NC(=O)N2CCN(Cc3ccc(O)c(O)c3)C(=O)C2=O)c2ccccc2)[C@H]1C(=O)O [Example 2, Sodium 6β-[D-2[[4-(3,4-Dihydroxybenzyl)-2,3-dioxopiperazin-1-yl]carbonylamino]-2-phenylacetamido]-6α-formamidopenicillanate] | 16 | 0.12 | < 0.03 | 0.12 | < 0.03 | < 0.03
2 | CC1(C)S[C@@H]2[C@H](NC(=O)[C@H](NC(=O)N3CCN(Cc4ccc(O)c(O)c4)C(=O)C3=O)c3ccccc3)C(=O)N2[C@H]1C(=O)O [Example 1, Sodium 6β-[D-2[[4-(3,4-Dihydroxybenzyl)-2,3-dioxopiperazin-1-yl]carbonylamino]-2-phenylacetamido]penicillanate] | 0.25 | < 0.06 | 0.5 | 0.12 | 4 | 1
3 | CO[C@@]1(NC(=O)[C@H](NC(=O)N2CCN(Cc3ccc(O)c(O)c3)C(=O)C2=O)c2ccccc2)C(=O)N2[C@@H](C(=O)O)C(C)(C)S[C@@H]21 [Example 3, Sodium 6β-[D-2-[[4-(3,4-Dihydroxybenzyl)-2,3-dioxopiperazin-1-yl]carbonylamino]-2-phenylacetamido]-6α-methoxypenicillanate] | > 128 | 1 | 0.25 | 4 | 2 | 16
4 | CCN1CCN(C(=O)N[C@@H](C(=O)N[C@@H]2C(=O)N3[C@@H]2SC(C)(C)[C@@H]3C(=O)O)c2ccccc2)C(=O)C1=O [Piperacillin, 6β-[D-2-[(4-ethyl-2,3-dioxopiperazin-1-yl)carbonylamino]-2-phenylacetamido] -penicillanic acid, sodium salt, reference compound] | 0.5 | 0.25 | 8 | 8 | > 128 | 32
5 | CCN1CCN(C(=O)N[C@@H](C(=O)N[C@]2(NC=O)C(=O)N3[C@@H](C(=O)O)C(C)(C)S[C@@H]32)c2ccccc2)C(=O)C1=O [Compound A, 6α-formamido-6β-[D-2-[(4-ethyl-2,3-dioxopiperazin-1-yl)carbonylamino]-2-phenylacetamido]-penicillanic acid, sodium salt, reference compound] | 64 | 0.12 | 0.12 | 1 | 0.12 | 0.25
6 | CC1(C)S[C@H]2N(C(=O)[C@@]2(NC=O)NC(=O)[C@H](NC(=O)N2CCN(Cc3cc(O)c(O)cn3)C(=O)C2=O)c2ccccc2)[C@H]1C(=O)O [Example 6, Sodium 6β-[D-2-[[4-(4,5-Dihydroxypyridin-2-ylmethyl)-2,3-dioxopiperazin-1-yl]carbonylamino]-2-phenylacetamido]-6α-formamidopenicillanate] | > 32 | 0.3 | 0.06 | 1 | 0.06 | 0.25
